Results reported in the supplement of paper PMC8671470.

Legend:
Conditions in all cases: 72 h
[1] = system: HEL; assay: cell viability (% survival relative to DMSO control, bortezomib = 0%); higher = less cytotoxic
Procedure, shortened: (§1)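 After 72 h at 37 °C with 5% CO2, cell viability in 384-well plates was measured by CellTiter-Glo luminescence. The plates held compounds pre-printed at 1, 10, 100, 1000 or 10000 nM in duplicate, and cells from 10 AML and 5 CML lines seeded at densities titrated to linear growth. Percent survival is the duplicate mean, normalised to vehicle as 100% and a 10 µM positive control as 0%.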

[2] = system: Mono-Mac-6; assay: as above
Procedure, shortened: as §1

[3] = system: SHI-1; assay: as above
Procedure, shortened: as §1

[4] = system: HL-60; assay: area under dose-response curve (viability, 1 nM-10 uM) (fraction (0-1)); higher = more sensitive
Procedure, shortened: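 A rescreen of the full library used HL-60 cells in RPMI 1640 with 10% FBS on 384-well plates, run in duplicate at five tenfold concentrations (1–10,000 nM). Each screen included DMSO or 100 nM of one of three metabolic inhibitors and ran 72 h at 37 °C, 5% CO2. CellTiter-Glo viability was scaled between DMSO and 10 μM proteasome-inhibitor wells. Any area under the curve comes from four-parameter log-logistic fits with drc and PharmacoGx.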

[5] = co-treatment: GSK2194069 100 nM
[6] = co-treatment: pictilisib 100 nM

| Structure (SMILES) | cell viability ([1]; 1 nM) [%] | cell viability ([1]; 10 nM) [%] | cell viability ([1]; 100 nM) [%] | cell viability ([1]; 1000 nM) [%] | cell viability ([1]; 10000 nM) [%] | cell viability ([2]; 1 nM) [%] | cell viability ([2]; 10 nM) [%] | cell viability ([2]; 100 nM) [%] | cell viability ([2]; 1000 nM) [%] | cell viability ([2]; 10000 nM) [%] | cell viability ([3]; 1 nM) [%] | cell viability ([3]; 10 nM) [%] | cell viability ([3]; 100 nM) [%] | cell viability ([3]; 1000 nM) [%] | cell viability ([3]; 10000 nM) [%] | area under dose-response curve ([4]; co-treatment: AZD3965 100 nM) | area under dose-response curve ([4]; co-treatment: DMSO vehicle) | area under dose-response curve [4, 5] | area under dose-response curve [4, 6] |
| --- | --- | --- | --- | --- | --- | --- | --- | --- | --- | --- | --- | --- | --- | --- | --- | --- | --- | --- | --- |
| Cc1ccccc1C(C(=O)NC1CCCCC1)N(C(=O)Cn1ccnc1C)c1cccc(F)c1 (stereo not given) [AGI-5198] | 95.4 | 104 | 106 | 99.4 | 101 | 92.8 | 107 | 100 | 104 | 99 | 94.9 | 92.7 | 107 | 96.2 | 99.1 | < 0.0301 | < 0.0301 | < 0.0301 | < 0.0301 |
| CC(C)(C#N)c1cc(Cn2cncn2)cc(C(C)(C)C#N)c1 [Anastrozole] | 92.8 | 96.5 | 105 | 97.1 | 105 | 103 | 102 | 111 | 102 | 89.7 | 108 | 94.5 | 102 | 101 | 103 | < 0.0301 | < 0.0301 | < 0.0301 | < 0.0301 |
| COc1ccc(S(=O)(=O)N2CCN(S(=O)(=O)c3ccc4c(c3)OCCO4)CC2)cc1 [BML283] | 107 | 88.3 | 96.7 | 90.8 | 101 | 103 | 101 | 99.8 | 97.6 | 98.6 | 110 | 94.8 | 96.9 | 96.3 | 103 | < 0.0301 | < 0.0301 | < 0.0301 | 0.0571 |
| O=c1cc(-c2ccccc2)oc2cc(O)c(O)c(O)c12 [Baicalein] | 108 | 88.2 | 109 | 137 | 75.4 | 103 | 102 | 99.2 | 117 | 75.4 | 109 | 92 | 126 | 97.2 | 82.8 | < 0.0301 | < 0.0301 | < 0.0301 | < 0.0301 |
| O=c1oc2c(O)c(O)cc3c(=O)oc4c(O)c(O)cc1c4c23 [Benzoaric Acid] | 113 | 100 | 107 | 92.3 | 114 | 108 | 109 | 103 | 92.5 | 118 | 97.7 | 106 | 99.7 | 94.3 | 120 | < 0.0301 | < 0.0301 | 0.0302 | 0.0302 |
| O=C(O)CCCCC(CCSCc1ccccc1)SCc1ccccc1 (stereo not given) [CPI-613] | 109 | 91 | 106 | 103 | 73.8 | 92.8 | 86.9 | 96.3 | 94.2 | 96.3 | 89.9 | 110 | 108 | 95.8 | 107 | < 0.0301 | < 0.0301 | < 0.0301 | < 0.0301 |
| CC(C)c1cc2c(c(O)c1O)[C@@]1(C(=O)O)CCCC(C)(C)[C@@H]1CC2 [Carnosic acid] | 100 | 112 | 92.1 | 100 | 97.4 | 92.7 | 102 | 103 | 90.4 | 64.3 | 101 | 112 | 95 | 112 | 108 | < 0.0301 | < 0.0301 | < 0.0301 | < 0.0301 |
| CCN(CC)CCCC(C)Nc1ccnc2cc(Cl)ccc12 (stereo not given) [Chloroquine] | 95.4 | 94.5 | 89.6 | 97.6 | 104 | 105 | 94.9 | 104 | 93.4 | 92.1 | 108 | 106 | 96.6 | 89.8 | 92 | < 0.0301 | < 0.0301 | < 0.0301 | < 0.0301 |
| NCCCC(N)(C(=O)O)C(F)F (stereo not given) [Difluoromethylornithine] | 100 | 96.8 | 90.1 | 104 | 95.9 | 98.2 | 92.7 | 94.2 | 98.5 | 93.3 | 100 | 100 | 90.9 | 104 | 106 | < 0.0301 | < 0.0301 | < 0.0301 | < 0.0301 |
| CCCc1cc(-c2nc(-c3ccc(C)cc3)cs2)ccn1 [Fatostatin] | 92.6 | 97.8 | 92.1 | 108 | 90.4 | 94.5 | 97.3 | 101 | 111 | 87.8 | 106 | 91.7 | 105 | 114 | 14.4 | < 0.0301 | < 0.0301 | 0.0533 | 0.0342 |
